Measurements: ChEMBL document CHEMBL3603757, “Discovery of a novel tricyclic 4H-thiazolo[5',4':4,5]pyrano[2,3-c]pyridine-2-amino scaffold and its application in a PI3Kα inhibitor with high PI3K isoform selectivity and potent cellular activity” (Bioorg Med Chem Lett, 2015)
≈ marks a conversion by molar mass, not a printed value.

How the values were obtained:
[1] = Oral bioavailability in Sprague-Dawley rat at 3 mg/kg; format: ADME, organism-based; conditions: in vivo
[2] = molecular target: T1, Phosphatidylinositol 4,5-bisphosphate 3-kinase catalytic subunit alpha isoform (Homo sapiens, UniProt P42336); test: Inhibition of P110alpha (unknown origin) by Kinase-Glo assay
T1 sequence (P42336 whole entry, canonical isoform): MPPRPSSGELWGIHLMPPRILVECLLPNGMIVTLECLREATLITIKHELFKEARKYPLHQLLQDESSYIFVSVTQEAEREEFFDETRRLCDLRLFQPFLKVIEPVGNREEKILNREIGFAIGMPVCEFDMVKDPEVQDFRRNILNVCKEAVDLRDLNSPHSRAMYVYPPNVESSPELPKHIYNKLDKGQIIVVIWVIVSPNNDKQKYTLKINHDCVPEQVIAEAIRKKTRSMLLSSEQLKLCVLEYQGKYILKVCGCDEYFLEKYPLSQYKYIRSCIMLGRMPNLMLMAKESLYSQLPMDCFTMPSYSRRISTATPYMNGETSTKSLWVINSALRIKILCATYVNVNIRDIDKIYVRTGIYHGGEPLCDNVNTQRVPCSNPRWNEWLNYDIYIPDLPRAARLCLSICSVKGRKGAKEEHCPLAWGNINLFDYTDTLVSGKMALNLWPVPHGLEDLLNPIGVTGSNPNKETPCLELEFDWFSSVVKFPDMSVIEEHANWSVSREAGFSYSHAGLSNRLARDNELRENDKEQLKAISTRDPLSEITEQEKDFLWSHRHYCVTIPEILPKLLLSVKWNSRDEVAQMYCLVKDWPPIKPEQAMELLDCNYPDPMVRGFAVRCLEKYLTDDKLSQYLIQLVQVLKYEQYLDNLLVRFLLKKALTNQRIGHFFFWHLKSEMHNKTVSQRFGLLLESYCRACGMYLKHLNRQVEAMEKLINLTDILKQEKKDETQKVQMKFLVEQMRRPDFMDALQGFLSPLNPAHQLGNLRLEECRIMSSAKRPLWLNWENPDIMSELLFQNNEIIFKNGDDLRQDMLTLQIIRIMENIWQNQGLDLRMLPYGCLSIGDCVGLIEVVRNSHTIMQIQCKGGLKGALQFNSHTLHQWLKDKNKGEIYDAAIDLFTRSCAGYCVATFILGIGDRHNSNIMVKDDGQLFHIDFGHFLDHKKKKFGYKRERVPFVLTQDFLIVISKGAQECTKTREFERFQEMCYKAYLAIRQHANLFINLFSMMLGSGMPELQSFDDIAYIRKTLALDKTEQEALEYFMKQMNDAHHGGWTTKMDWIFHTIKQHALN

[3] = Terminal half life in Sprague-Dawley rat at 1 mg/kg, iv; format: ADME, organism-based; conditions: in vivo, read-out: beta t1/2 (converted)
[4] = molecular target: T2, Phosphatidylinositol 4,5-bisphosphate 3-kinase catalytic subunit delta isoform (Homo sapiens, UniProt O00329); test: Inhibition of P110delta (unknown origin) using PI or PIP2:PS as substrate measured for 15 to 60 mins by TR-FRET analysis
T2 sequence (O00329 whole entry): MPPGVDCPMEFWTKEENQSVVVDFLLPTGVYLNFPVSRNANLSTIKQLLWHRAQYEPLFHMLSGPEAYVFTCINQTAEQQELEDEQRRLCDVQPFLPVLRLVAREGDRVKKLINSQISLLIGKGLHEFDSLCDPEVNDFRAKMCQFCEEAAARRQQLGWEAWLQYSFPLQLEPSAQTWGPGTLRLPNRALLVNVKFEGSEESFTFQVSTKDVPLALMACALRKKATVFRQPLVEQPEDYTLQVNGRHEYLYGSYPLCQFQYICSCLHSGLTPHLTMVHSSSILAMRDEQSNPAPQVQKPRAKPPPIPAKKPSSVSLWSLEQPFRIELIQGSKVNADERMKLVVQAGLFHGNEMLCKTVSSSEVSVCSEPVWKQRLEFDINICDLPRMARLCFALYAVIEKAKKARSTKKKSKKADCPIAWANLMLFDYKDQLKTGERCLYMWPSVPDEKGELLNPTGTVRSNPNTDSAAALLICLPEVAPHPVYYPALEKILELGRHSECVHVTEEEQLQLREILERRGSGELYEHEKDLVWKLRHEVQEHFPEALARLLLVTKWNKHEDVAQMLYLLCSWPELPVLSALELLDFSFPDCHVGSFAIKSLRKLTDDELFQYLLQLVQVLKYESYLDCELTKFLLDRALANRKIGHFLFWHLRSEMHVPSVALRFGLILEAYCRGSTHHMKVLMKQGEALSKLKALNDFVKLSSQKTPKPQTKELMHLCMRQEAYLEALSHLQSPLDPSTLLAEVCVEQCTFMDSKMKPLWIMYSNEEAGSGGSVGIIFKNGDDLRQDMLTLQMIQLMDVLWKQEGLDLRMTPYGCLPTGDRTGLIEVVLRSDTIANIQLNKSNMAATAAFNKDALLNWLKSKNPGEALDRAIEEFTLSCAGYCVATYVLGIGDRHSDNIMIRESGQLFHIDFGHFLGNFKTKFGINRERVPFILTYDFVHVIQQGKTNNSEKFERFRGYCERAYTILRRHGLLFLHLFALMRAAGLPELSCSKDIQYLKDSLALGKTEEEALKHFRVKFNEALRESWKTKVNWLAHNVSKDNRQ

[5] = Clearance in Sprague-Dawley rat at 1 mg/kg, iv; format: ADME, organism-based; conditions: in vivo
[6] = Tmax in Sprague-Dawley rat at 3 mg/kg, po; format: ADME, organism-based; conditions: in vivo
[7] = molecular target: T2, Phosphatidylinositol 4,5-bisphosphate 3-kinase catalytic subunit delta isoform; test: Inhibition of myristoylated human P110delta expressed in Rat1 cells assessed as inhibition of Akt phosphorylation at Serine 473 by Western blot analysis; format: cell-based
[8] = molecular target: Phosphatidylinositol 4,5-bisphosphate 3-kinase catalytic subunit gamma isoform (Homo sapiens, UniProt P48736); test: Inhibition of P110gamma (unknown origin) using PI or PIP2:PS as substrate measured for 15 to 60 mins by TR-FRET analysis
Sequence of Phosphatidylinositol 4,5-bisphosphate 3-kinase catalytic subunit gamma isoform (P48736 whole entry, canonical isoform): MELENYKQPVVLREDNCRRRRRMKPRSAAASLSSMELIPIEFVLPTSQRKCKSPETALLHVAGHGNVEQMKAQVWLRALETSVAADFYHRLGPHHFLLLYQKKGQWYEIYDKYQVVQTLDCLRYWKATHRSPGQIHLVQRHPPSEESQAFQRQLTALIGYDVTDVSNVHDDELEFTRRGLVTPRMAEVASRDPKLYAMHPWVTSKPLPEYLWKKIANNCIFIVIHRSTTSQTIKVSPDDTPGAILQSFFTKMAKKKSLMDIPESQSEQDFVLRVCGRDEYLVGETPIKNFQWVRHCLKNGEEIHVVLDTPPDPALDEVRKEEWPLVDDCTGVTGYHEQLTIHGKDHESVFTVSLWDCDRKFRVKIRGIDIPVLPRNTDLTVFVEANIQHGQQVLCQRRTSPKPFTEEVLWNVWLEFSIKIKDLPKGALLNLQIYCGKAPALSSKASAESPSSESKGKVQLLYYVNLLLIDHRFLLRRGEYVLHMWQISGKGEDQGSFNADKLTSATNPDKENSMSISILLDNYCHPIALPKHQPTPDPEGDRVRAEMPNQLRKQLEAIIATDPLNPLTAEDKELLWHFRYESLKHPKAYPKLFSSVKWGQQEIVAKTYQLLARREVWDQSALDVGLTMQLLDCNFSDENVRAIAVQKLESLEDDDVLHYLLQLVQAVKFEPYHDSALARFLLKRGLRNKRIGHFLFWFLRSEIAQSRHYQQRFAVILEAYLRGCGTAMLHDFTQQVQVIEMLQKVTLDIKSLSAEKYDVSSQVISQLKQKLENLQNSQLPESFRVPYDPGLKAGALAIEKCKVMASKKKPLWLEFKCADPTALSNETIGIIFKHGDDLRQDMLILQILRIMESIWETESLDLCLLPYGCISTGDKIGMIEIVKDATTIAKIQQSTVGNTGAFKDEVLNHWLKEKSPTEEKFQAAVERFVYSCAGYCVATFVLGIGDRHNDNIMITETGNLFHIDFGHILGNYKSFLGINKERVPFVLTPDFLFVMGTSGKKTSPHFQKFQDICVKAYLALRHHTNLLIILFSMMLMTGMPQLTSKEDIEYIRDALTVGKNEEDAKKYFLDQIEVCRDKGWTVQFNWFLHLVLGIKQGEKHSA

[9] = Plasma protein binding in rat; format: ADME, cell-free; conditions: read-out: PPB (converted)
Rattus norvegicus [10] = test: Dose normalized AUC in Sprague-Dawley rat at 3 mg/kg, po; format: ADME, organism-based; conditions: in vivo
Rattus norvegicus [11] = test: Dose normalized AUC in Sprague-Dawley rat at 1 mg/kg, iv; format: ADME, organism-based; conditions: in vivo
[12] = Solubility of the compound in water at pH 6.8; format: physicochemical
[13] = molecular target: T1, Phosphatidylinositol 4,5-bisphosphate 3-kinase catalytic subunit alpha isoform; test: Inhibition of myristoylated human P110alpha expressed in Rat1 cells assessed as inhibition of Akt phosphorylation at Serine 473 by Western blot analysis; format: cell-based
Rattus norvegicus [14] = test: Dose normalized Cmax in Sprague-Dawley rat at 3 mg/kg, po; format: ADME, organism-based; conditions: in vivo
[15] = molecular target: T3, Phosphatidylinositol 4,5-bisphosphate 3-kinase catalytic subunit beta isoform (Homo sapiens, UniProt P42338); test: Inhibition of myristoylated human P110beta expressed in Rat1 cells assessed as inhibition of Akt phosphorylation at Serine 473 by Western blot analysis; format: cell-based
T3 sequence (P42338 whole entry, canonical isoform): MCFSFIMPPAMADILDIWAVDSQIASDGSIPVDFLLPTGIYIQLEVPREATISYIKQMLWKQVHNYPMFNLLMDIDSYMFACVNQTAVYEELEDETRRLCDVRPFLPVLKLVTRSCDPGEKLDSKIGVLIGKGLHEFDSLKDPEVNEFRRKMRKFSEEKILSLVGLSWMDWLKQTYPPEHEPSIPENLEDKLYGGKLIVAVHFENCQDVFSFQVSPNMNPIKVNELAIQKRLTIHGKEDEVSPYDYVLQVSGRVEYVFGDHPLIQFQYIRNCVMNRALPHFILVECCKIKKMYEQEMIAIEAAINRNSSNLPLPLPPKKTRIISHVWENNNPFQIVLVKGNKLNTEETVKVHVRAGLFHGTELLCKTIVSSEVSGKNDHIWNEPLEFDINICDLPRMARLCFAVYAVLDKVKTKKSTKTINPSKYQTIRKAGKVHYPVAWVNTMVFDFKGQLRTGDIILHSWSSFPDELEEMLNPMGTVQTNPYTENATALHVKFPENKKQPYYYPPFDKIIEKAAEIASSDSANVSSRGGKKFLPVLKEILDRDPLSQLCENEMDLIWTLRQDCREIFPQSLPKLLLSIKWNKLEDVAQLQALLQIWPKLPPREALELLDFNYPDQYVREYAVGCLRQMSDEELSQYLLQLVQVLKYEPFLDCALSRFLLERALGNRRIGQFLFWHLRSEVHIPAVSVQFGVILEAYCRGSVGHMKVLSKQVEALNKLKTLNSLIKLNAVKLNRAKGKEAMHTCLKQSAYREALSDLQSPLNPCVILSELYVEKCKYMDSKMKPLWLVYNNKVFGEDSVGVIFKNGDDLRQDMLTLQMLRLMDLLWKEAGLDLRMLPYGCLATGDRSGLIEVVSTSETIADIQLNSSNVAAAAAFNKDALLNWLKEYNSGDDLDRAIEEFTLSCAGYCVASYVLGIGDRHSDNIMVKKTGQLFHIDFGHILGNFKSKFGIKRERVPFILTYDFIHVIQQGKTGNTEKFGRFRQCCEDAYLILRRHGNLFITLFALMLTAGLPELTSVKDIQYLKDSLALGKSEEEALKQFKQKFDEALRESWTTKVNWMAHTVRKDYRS

[16] = Volume of distribution at steady state in Sprague-Dawley rat at 1 mg/kg, iv; format: ADME, organism-based; conditions: in vivo, read-out: Vdss
[17] = Solubility of the compound in […]; format: physicochemical
[18] = molecular target: T3, Phosphatidylinositol 4,5-bisphosphate 3-kinase catalytic subunit beta isoform; test: Inhibition of P110beta (unknown origin) by Kinase-Glo assay
[19] = Solubility of the compound in water at pH 4; format: physicochemical

C[C@@H]1CCN(C(=O)Nc2nc3c(s2)-c2cc(C(C)(C)C(F)(F)F)ncc2OC3)[C@@H]1C(N)=O
bioavailability [1]: 17% | IC50 [2]: 5 nM | half-life [3]: 1.4 h | IC50 [4]: 220 nM | clearance [5]: 27 mL/min/kg | Tmax [6]: 1.2 h | IC50 [7]: 540 nM | IC50 [8]: 200 nM | fraction unbound [9]: 0.033 | AUC/dose (Rattus norvegicus [10]): 228 nM·h | AUC/dose (Rattus norvegicus [11]): 1368 nM·h | solubility [12]: 260 µM (≈ 122 µg/mL) | IC50 [13]: 11 nM | Cmax/dose (Rattus norvegicus [14]): 61 nM | IC50 [15]: 1110 nM | Vd [16]: 1.8 L/kg | solubility [17]: 410 µM (≈ 192 µg/mL) | IC50 [18]: 670 nM | solubility [19]: 450 µM (≈ 211 µg/mL)

Cc1nc(NC(=O)N2CC[C@@H](C)[C@H]2C(N)=O)sc1-c1ccnc(C(C)(C)C(F)(F)F)c1
IC50 [2]: 19 nM | IC50 [4]: 390 nM | IC50 [7]: 616 nM | IC50 [8]: 230 nM | solubility [12]: 23 µM (≈ 10.5 µg/mL) | IC50 [13]: 19 nM | IC50 [15]: 2000 nM | solubility [17]: 31 µM (≈ 14.1 µg/mL) | IC50 [18]: 1040 nM | solubility [19]: 35 µM (≈ 15.9 µg/mL)
